Blank lines part the entries; values can stand above or below the compound they belong to.
Legend:
[1] = target: T1, Gastrin-releasing peptide receptor (Homo sapiens, UniProt P30550); assay: Binding affinity to GRP receptor (unknown origin)
Spleen = assay: Biodistribution in spleen of NMRI nude mouse xenografted with human PC3 cells after 120 mins by gamma-counting analysis; format: ADME, organism-based, PC-3; conditions: in vivo, 2 h
Mus musculus [2] = assay: Biodistribution in tumor of NMRI nude mouse xenografted with human PC3 cells after 120 mins by gamma-counting analysis; format: ADME, organism-based, Neoplasm, PC-3; conditions: in vivo, 2 h
Blood = assay: Biodistribution in blood of NMRI nude mouse xenografted with human PC3 cells after 120 mins by gamma-counting analysis; format: ADME, organism-based, PC-3; conditions: in vivo, 2 h
[3] = Lipophilicity, log D of the compound; format: physicochemical; conditions: octanol/water
Kidney = assay: Biodistribution in kidney of NMRI nude mouse xenografted with human PC3 cells after 120 mins by gamma-counting analysis; format: ADME, organism-based, PC-3; conditions: in vivo, 2 h
Liver = assay: Biodistribution in liver of NMRI nude mouse xenografted with human PC3 cells after 120 mins by gamma-counting analysis; format: ADME, organism-based, PC-3; conditions: in vivo, 2 h
Pancreas = assay: Biodistribution in pancreas of NMRI nude mouse xenografted with human PC3 cells after 120 mins by gamma-counting analysis; format: ADME, organism-based, PC-3; conditions: in vivo, 2 h
Mus musculus [4] = assay: Biodistribution in gallbladder of NMRI nude mouse xenografted with human PC3 cells after 120 mins by gamma-counting analysis; format: ADME, organism-based, Gall bladder, PC-3; conditions: in vivo, 2 h
[5] = Ratio of biodistribution in tumor to blood of NMRI nude mouse xenografted with human PC3 cells after 120 mins by gamma-counting analysis; format: ADME, organism-based, PC-3; conditions: tumour, 2 h
Intestine = assay: Biodistribution in intestine of NMRI nude mouse xenografted with human PC3 cells after 120 mins by gamma-counting analysis; format: ADME, organism-based, PC-3; conditions: in vivo, 2 h
[6] = Half life of the compound in water; format: physicochemical
[7] = target: T1, Gastrin-releasing peptide receptor; assay: Displacement of [125I]-Tyr4-bombesin from GRP receptor in human PC3 cells after 1 hr by gamma-counting analysis; format: cell-based, PC-3

T1 sequence (P30550 whole entry): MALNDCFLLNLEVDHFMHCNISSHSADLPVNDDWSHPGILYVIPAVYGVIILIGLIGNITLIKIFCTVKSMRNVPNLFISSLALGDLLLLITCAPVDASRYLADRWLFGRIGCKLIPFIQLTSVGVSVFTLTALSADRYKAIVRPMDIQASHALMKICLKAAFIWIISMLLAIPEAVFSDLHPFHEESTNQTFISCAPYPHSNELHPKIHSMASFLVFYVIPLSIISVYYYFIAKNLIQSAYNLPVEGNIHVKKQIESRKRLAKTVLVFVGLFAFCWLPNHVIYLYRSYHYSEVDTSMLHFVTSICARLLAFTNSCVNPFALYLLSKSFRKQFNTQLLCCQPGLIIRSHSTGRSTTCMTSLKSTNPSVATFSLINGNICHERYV

IC50 [1]: 22.9 nM
Structure (SMILES): CC(C)C[C@H](NC(=O)C[C@H](O)[C@H](CC(C)C)NC(=O)[C@H](Cc1cnc[nH]1)NC(=O)CN(C)C(=O)[C@@H](NC(=O)[C@H](C)NC(=O)[C@H](Cc1c[nH]c2ccccc12)NC(=O)[C@H](CCC(N)=O)NC(=O)CCCCNC(=O)[C@H](CCCNC(=N)N)NC(=O)Cc1ccc([Si](F)(C(C)(C)C)C(C)(C)C)cc1)C(C)C)C(N)=O

Drug uptake (Spleen): 0.46 % ID/g
Drug uptake (Mus musculus [2]): 0.4 % ID/g
Drug uptake (Blood): 0.42 % ID/g
logD [3]: 1.3
Drug uptake (Kidney): 1.73 % ID/g
Drug uptake (Liver): 4.4 % ID/g
Drug uptake (Pancreas): 4.08 % ID/g
Drug uptake (Mus musculus [4]): 146 % ID/g
Ratio [5]: 0.95
Drug uptake (Intestine): 16 % ID/g
Structure (SMILES): CC(C)C[C@H](NC(=O)C[C@H](O)[C@H](CC(C)C)NC(=O)[C@H](Cc1cnc[nH]1)NC(=O)CN(C)C(=O)[C@@H](NC(=O)[C@H](C)NC(=O)[C@H](Cc1c[nH]c2ccccc12)NC(=O)[C@H](CCC(N)=O)NC(=O)CCCCNC(=O)[C@H](CCCNC(=N)N)NC(=O)Cc1ccc([Si]([18F])(C(C)(C)C)C(C)(C)C)cc1)C(C)C)C(N)=O

half-life [6]: 8 h
Structure (SMILES): CC(C)(C)[Si](F)(CCO)C(C)(C)C

IC50 [7]: 8.3 nM
Structure (SMILES): CC(C)C[C@H](NC(=O)C[C@H](O)[C@H](CC(C)C)NC(=O)[C@H](Cc1cnc[nH]1)NC(=O)CN(C)C(=O)[C@@H](NC(=O)[C@H](C)NC(=O)[C@H](Cc1c[nH]c2ccccc12)NC(=O)[C@H](CCC(N)=O)NC(=O)CCCCNC(=O)[C@H](CS(=O)(=O)O)NC(=O)[C@H](CS(=O)(=O)O)NC(=O)Cc1ccc([Si](F)(C(C)(C)C)C(C)(C)C)cc1)C(C)C)C(N)=O

IC50 [7]: 23 nM
Structure (SMILES): CC(C)C[C@H](NC(=O)C[C@H](O)[C@H](CC(C)C)NC(=O)[C@H](Cc1cnc[nH]1)NC(=O)CN(C)C(=O)[C@@H](NC(=O)[C@H](C)NC(=O)[C@H](Cc1c[nH]c2ccccc12)NC(=O)[C@H](CCC(N)=O)NC(=O)CCCCNC(=O)[C@H](CCCNC(=N)N)NC(=O)C(O)C(O)C(=O)NCCc1ccc([Si](F)(C(C)(C)C)C(C)(C)C)cc1)C(C)C)C(N)=O (some centres undefined)
